The structures appear in SMILES notation.

The values that follow come from US20120277209A1, “PYRAZINE COMPOUNDS AS PHOSPHODIESTERASE 10 INHIBITORS” (Amgen Inc., priority 2009, published 2012).

The first assay deals with PDE10 (UniProt Q9Y233). Briefly: PDE10 enzyme inhibition, IMAP TR-FRET assay (MPDE10A7 Enzyme Activity and Inhibition). Type of assay: biochemical. Particulars: IC50 class against PDE10; read-out: IC50. Put shortly: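 PDE10A enzyme or tissue homogenate preincubated with compounds 30 min at room temperature, then fluorescein-labelled cAMP or cGMP added for 60 min. IMAP binding reagent stop, TR-FRET read. Values are mean IC50s, grouped into five potency classes.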
As to `CC#CCOc1nccnc1Oc1ccc(C(=O)c2nc3ccccc3[nH]2)cc1` [Example 169, (1H-benzo[d]imidazol-2-yl)(4-(3-(but-2-ynyloxy)pyrazin-2-yloxy)phenyl)methanone], the IC50 was 100 to 250 nM.
Still for that read-out and setting: in the case of `O=C(c1ccc(Oc2nccnc2OCC2CC2)cc1)c1nc2ccccc2[nH]1` [Example 163, (1H-benzo[d]imidazol-2-yl)(4-(3-(cyclopropylmethoxy)pyrazin-2-yloxy)phenyl)methanone] it was 250 to 1000 nM.
On the same count and under the same terms, to `CC(=O)N1CCC(c2nccnc2Oc2ccc(C(=O)c3nc4ccccc4n3C)cc2)CC1` [Example 242, 1-(4-(3-(4-(1-methyl-1H-benzo[d]imidazole-2-carbonyl)phenoxy)pyrazin-2-yl)piperidin-1-yl)ethanone] belongs below 25 nM; to `Fc1cccc2nc(Nc3ccc(Oc4nccnc4Cl)cc3)sc12` [Example 100, N-(4-(3-chloropyrazin-2-yloxy)-phenyl)-7-fluorobenzo[d]thiazol-2-amine], 1000 to 5000 nM.
The same measure, in the same setting: to `CC(=O)N1CCC(c2nccnc2Oc2ccc(Nc3nc4ccccc4s3)cc2F)CC1` [Example 248, 1-(4-(3-(4-(benzo[d]thiazol-2-ylamino)-2-fluorophenoxy)pyrazin-2-yl)piperidin-1-yl)ethanone] belongs below 25 nM; to `CC(=O)N1CCC(c2nccnc2Oc2ccc(Nc3nc4ccccc4s3)cc2)C1` (stereo not drawn) [Example 241, 1-(3-(3-(4-(benzo[d]thiazol-2-ylamino)phenoxy)pyrazin-2-yl)pyrrolidin-1-yl)ethanone], below 25 nM.
With `c1ccc2sc(Nc3ccc(Oc4nccnc4-c4ccc(N5CCOCC5)cc4)cc3)nc2c1` [Example 139, N-(4-(3-(4-morpholinophenyl)pyrazin-2-yloxy)phenyl)benzo[d]thiazol-2-amine], the 50% inhibitory concentration (IC50) is 100 to 250 nM.
With `CC(=O)N1CCC(c2nccnc2Oc2ccc(C(=O)c3nc4ccccc4[nH]3)cc2)C1` (stereo not drawn) [Example 240, 1-(3-(3-(4-(1H-benzo[d]imidazole-2-carbonyl)phenoxy)pyrazin-2-yl)pyrrolidin-1-yl)ethanone], the IC50 is below 25 nM.
With `FC(F)(c1ccc(Oc2nccnc2N2CCOCC2)cc1)c1nc2ccccc2[nH]1` [Example 7, 4-(3-(4-((1H-BENZO[D]IMIDAZOL-2-YL)DIFLUOROMETHYL)PHENOXY)PYRAZIN-2-YL)MORPHOLINE], the IC50 is 100 to 250 nM.
Still for that read-out and setting: in the case of `O=S1(=O)CCN(c2nccnc2Oc2ccc(Nc3nc4ccccc4s3)cc2)CC1` [Example 75, N-(4-((3-(1,1-dioxido-4-thio-morpholinyl)-2-pyrazinyl)oxy)-phenyl)-1,3-benzothiazol-2-amine] it was 250 to 1000 nM.
On the same count and under the same terms, in the case of `COc1cccc2nc(Nc3ccc(Oc4nccnc4C4CCOCC4)cc3)[nH]c12` [Example 209, 7-methoxy-N-(4-(3-(tetrahydro-2H-pyran-4-yl)pyrazin-2-yloxy)phenyl)-1H-benzo[d]imidazol-2-amine] it was below 25 nM; in that of `Cc1ncsc1CCOc1nccnc1Oc1ccc(C(=O)c2nc3ccccc3[nH]2)cc1` [Example 170, (1H-benzo[d]imidazol-2-yl)(4-(3-(2-(4-methylthiazol-5-yl)ethoxy)pyrazin-2-yloxy)phenyl)methanone], 100 to 250 nM.
The same measure, in the same setting: in the case of `Cc1nc2c([nH]1)CCN(c1nccnc1Oc1ccc(Nc3nc4ccccc4s3)cc1)C2` [Example 82, N-(4-(3-(2-methyl-6,7-dihydro-1H-imidazo[4,5-c]pyridin-5(4H)-yl)pyrazin-2-yloxy)phenyl)benzo-[d]thiazol-2-amine] it was 100 to 250 nM.
As to `CC(C)n1c(C(=O)c2ccc(Oc3nccnc3N3CCOCC3)cc2)nc2ccccc21` [Example 6, (1-ISOPROPYL-1H-BENZO[D]IMIDAZOL-2-YL)(4-(3-MORPHOLINOPYRAZIN-2-YLOXY)PHENYL)METHANONE], the IC50 lay within 25 to 100 nM.
In the case of `O=C(c1ccc(Oc2nccnc2Cl)cc1)c1nc2ccc(F)cc2[nH]1` [Example 4, [4-(3-CHLORO-PYRAZIN-2-YLOXY)-PHENYL]-(6-FLUORO-1H-BENZOIMIDAZOL-2-YL)-METHANONE], the IC50 was in the range of 1000 to 5000 nM.
On to `c1ccc2sc(Nc3ccc(Oc4nccnc4N4CCC5(CC4)OCCO5)cc3)nc2c1` [Example 99, N-(4-(3-(1,4-dioxa-8-azaspiro[4.5]-decan-8-yl)pyrazin-2-yloxy)phenyl)-benzo[d]thiazol-2-amine], for which the IC50 was in the range of 25 to 100 nM.
Same read-out and setting: in the case of `CC(=O)N1CCC(c2nccnc2Oc2ccc(C(=O)c3nc4ccccc4[nH]3)cc2)CC1` [Example 224, 1-(4-(3-(4-(1H-BENZO[D]IMIDAZOLE-2-CARBONYL)PHENOXY)PYRAZIN-2-YL)PIPERIDIN-1-YL)ETHANONE] it was below 25 nM; in that of `O=C(c1ccc(Oc2nccnc2Cl)cc1)c1nc2ccccc2[nH]1` [Example 3, (1H-BENZO[D]IMIDAZOL-2-YL)(4-(3-CHLOROPYRAZIN-2-YLOXY)PHENYL)METHANONE], 1000 to 5000 nM.

The same assay, now with this note: PDE10 enzyme inhibition; average IC50 data for each compound; read-out: Average IC50.
For the molecule `O=C(c1ccc(Oc2nccnc2C2=CC[C@@H](O)CC2)cc1)c1nc2ccccc2[nH]1` (racemic), the IC50 came out at 1.69 nM.
With `OCC1CCCCN1c1nccnc1Oc1ccc(Nc2nc3ccccc3s2)cc1` (stereo not drawn) [drawing 730], the IC50 was determined as 21.7 nM.
The same measure, in the same setting: to `O=C(c1ccc(Oc2nccnc2C2=CCC(F)(F)CC2)cc1)c1nc2ccccc2[nH]1` [drawing 862] belongs 14.2 nM; to `O=C(c1ccc(Oc2nccnc2OCCc2ccccn2)cc1)c1nc2ccccc2[nH]1` [drawing 860], 8.05 nM; to `CC(=O)O[C@@H](C)C(=O)N1CCC(c2nccnc2Oc2ccc(C(=O)c3nc4ccccc4[nH]3)cc2)CC1` (stereo in doubt), 0.119 nM.
Turning to `O=C1CCCC(c2nccnc2Oc2ccc(C(=O)c3nc4ccccc4[nH]3)cc2)C1` (stereo not drawn), the IC50 came to 1.33 nM.
On the same count and under the same terms, in the case of `FC(F)(c1ccc(Oc2nccnc2C2CCOCC2)cc1)c1nc2ccccc2[nH]1` it was 52.9 nM; in that of `FCCN1CCC(c2nccnc2Oc2ccc(Nc3nc4ccccc4s3)cc2)CC1` [drawing 962], 3.24 nM.
Turning to `Fc1cc(Oc2nccnc2Cl)ccc1Nc1nc2ccccc2s1` [drawing 836], the IC50 came to 614 nM.
As for `CC(=O)N1CCC(c2nccnc2Oc2ccc(C(O)c3nc4ccccc4[nH]3)cc2)CC1` (stereo not drawn) [drawing 975], the IC50 was 19 nM.
On to `N#C[C@@H]1CCCN(c2nccnc2Oc2ccc(C(=O)c3nc4ccccc4[nH]3)cc2)C1` (stereo in doubt), for which the IC50 worked out at 6.79 nM.
Same read-out and setting: in the case of `CC(=O)N1CCC(c2nccnc2Oc2ccc(C(=O)c3nc4ccccc4n3C)cc2)CC1` [drawing 965] it was 0.174 nM; in that of `CCOC(=O)[C@@H]1CCCN(c2nccnc2Oc2ccc(C(=O)c3nc4ccccc4[nH]3)cc2)C1` (stereo in doubt), 0.773 nM.
In the case of `O=C(c1ccc(Oc2nccnc2C2CCNCC2)cc1)c1nc2ccccc2[nH]1` [drawing 999], the IC50 was 7.7 nM.
Same read-out and setting: to `OC[C@@H]1CCN(c2nccnc2Oc2ccc(Nc3nc4ccccc4s3)cc2)C1` [drawing 732] belongs 2.89 nM; to `O=C(c1ccc(Oc2nccnc2Oc2ccccc2)cc1)c1nc2ccccc2[nH]1` [drawing 850], 2120 nM.
Same read-out and setting: in the case of `O=C(c1ccc(Oc2nccnc2[C@H]2CCC[C@@H](O)C2)cc1)c1nc2ccccc2[nH]1` [drawing 909] it was 0.961 nM.

The same assay, now with this note: PDE10 enzyme inhibition; chiral compounds separated from racemic mixtures; read-out: IC50.
With `C[C@@H](F)C(=O)N1CCC(c2nccnc2Oc2ccc(Nc3nc4ccccc4s3)cc2)CC1` [Example 279, (R)-1-(4-(3-(4-(benzo[d]thiazol-2-ylamino)phenoxy)pyrazin-2-yl)piperidin-1-yl)-2-fluoropropan-1-one], the concentration for half-maximal inhibition (IC50) is below 25 nM.
